The values that follow come from patent publication US20230391752A1, “PYRROLIDINE-3-CARBOXAMIDE DERIVATIVES AND RELATED USES” (Chulalongkorn University, priority 2020, published 2023).

Data set [1] is described as follows: Cytotoxicity (MTT) in HepG2.2.15 cells. The format is cell-based. The note with it: human, 6 days treatment, read-out: HepG2.1.15 cytotoxicity (CC50). Here is the method: HepG2.2.15 cells were seeded onto 96-well culture plate and allowed to adhere for 24 hours. The cells were treated with various concentrations of the compounds for 6 days. After treatment, the culture media were discarded and further incubated with serum-free media containing […] of 3-(4,5-dimethylthiazol-2-yl)-2,5-diphenyl tetrazolium bromide (MTT) for 2 hour. The resulting formazan crystals were completely dissolved in dimethyl sulfoxide (DMSO), and then measured absorbance at 570 nm using microplate reader. The concentrations of compounds producing 50% cell death (CC50) were determined from a fitting of concentration-response curve (% cell viability versus concentration) to a four-parameter equation.

The test system of data set [2] is HBV. The data set is described as follows: In vitro anti-HBV activity in HepG2.2.15 cell line (intracellular HBV DNA by qPCR at 1 μM). Format: cell-based. The conditions noted are these: Hepatitis B virus, 144 h; HepG2.2.15 cells, 1 μM compound, 6 days, intracellular HBV DNA as percentage compared to vehicle control (0.5% DMSO). Put shortly:
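HepG2.2.15 cells given compound at 1 μM (0.5% DMSO final) for 3 days, then fresh compound-containing medium for 3 more days. After 6 days intracellular HBV DNA measured by qPCR. Expressed as % of 0.5% DMSO vehicle control and binned into letter ranges.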
For orientation: Quantitative PCR measures a nucleic acid by following its amplification.

For data set [3], the system named is HBV. The data set is described as follows: Effect on intrahepatic HBV DNA levels in HepG2.2.15 cells (EC50). The conditions noted are these: Hepatitis B virus, 144 h, 6 days, intrahepatic HBV DNA by qPCR, read-out: Anti-HBV DNA (EC50). Format: cell-based. As for the experimental part:
HepG2.2.15 cells were treated with compounds, at various concentrations in 10% FCS containing medium, at 37° C. for three days. After that the medium was removed and fresh medium containing the compound was added to the cells for another 3 days. After 6 days of treatment, intrahepatic HBV DNA from cell lysates were isolated. Then qPCR reaction of DNA was performed to measure total HBV DNA levels using specific primer set. The fifty-percent effective concentrations (EC50) for HBV DNA inhibition, relative to no drug controls, was determined using nonlinear fitting curve model. EC50 ranges for HBV DNA inhibition were as follows: A>0.3 μM, B=0.05-0.3 μM, C<0.05 μM (Table B).

Another data set addresses T1, HBV core protein (Cp149) (Hepatitis B virus genotype D subtype ayw, UniProt P03146).
T1 construct: HBV core C-terminally truncated protein (HBV Cp149); made in house
The data set is described as follows: HBV capsid assembly by size exclusion chromatography (SEC). Format: biochemical. The conditions noted are these: 50 μM compound, 15 μM Cp149, 16 hours at 21° C. Background: SEC sorts molecules by how far they enter the pores of the column.

SMILES strings stand for the structures.

T1 sequence (P03146 1-149): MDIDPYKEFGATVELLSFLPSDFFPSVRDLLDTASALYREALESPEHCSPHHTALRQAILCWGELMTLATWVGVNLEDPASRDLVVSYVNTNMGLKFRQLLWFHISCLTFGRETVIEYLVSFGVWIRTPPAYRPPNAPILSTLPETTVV

The term CC50 denotes the concentration giving 50% cytotoxicity. Broadly, the EC50 is the concentration giving half of the maximal effect. Take `Cc1cc(NC(=O)[C@H]2CCN(C(=O)c3[nH]c4ccccc4c3Cl)C2)ccc1F` [Example 2, (S)-1-(3-chloro-1H-indole-2-carbonyl)-N-(4-fluoro-3-methylphenyl)pyrrolidine-3-carboxamide]: the CC50 at 6 days in data set [1] was over 25000 nM. Besides, in the data set with HBV [2], the activity at 1 µM is under 45%. For the same compound, the EC50 in the data set with HBV [3] is under 50 nM. Also, at HBV core protein (Cp149), the “Size of induced capsids based on SEC retention times” value (“Size of induced capsids based” for short) was “capsid retention times between BAY 41-4109 and NVR 3-778”.
In the case of `O=C(Nc1cc(F)c(F)c(F)c1)[C@H]1CCN(C(=O)c2cc3ccccc3[nH]2)C1` [Example 4, (S)-1-(1H-indole-2-carbonyl)-N-(3,4,5-trifluorophenyl)pyrrolidine-3-carboxamide], the CC50 at 6 days in data set [1] was over 25000 nM. In the data set with HBV [2], this compound showed an activity at 1 µM of under 45%. Moreover, the EC50 in the data set with HBV [3] is over 300 nM. Moreover, the “Size of induced capsids based” value at HBV core protein (Cp149) is given as “induced capsids similar in size to NVR 3-778”.
Regarding `C[C@H]1[C@@H](C(=O)Nc2cc(F)c(F)c(F)c2)CCN1C(=O)c1ccc(C#N)[nH]1` [Example 19, (2S,3S)-1-(5-cyano-1H-pyrrole-2-carbonyl)-2-methyl-N-(3,4,5-trifluorophenyl)pyrrolidine-3-carboxamide], in data set [1], the CC50 at 6 days is over 25000 nM. The activity at 1 µM with HBV [2] was under 45%. Moreover, the EC50 in the data set with HBV [3] fell in the range of 50 to 300 nM. Further, the “Size of induced capsids based” value at HBV core protein (Cp149) is reported as “induced capsids similar in size to NVR 3-778”.
In the data set on HBV [2], `O=C(Nc1ccc(F)c(Cl)c1)[C@H]1CCN(C(=O)c2[nH]c3ccccc3c2Cl)C1` [Example 41, (S)-1-(3-chloro-1H-indole-2-carbonyl)-N-(3-chloro-4-fluoro-phenyl)pyrrolidine-3-carboxamide] displayed an activity at 1 µM of under 45%. Besides, the EC50 in the data set with HBV [3] was in the range of 50 to 300 nM.
Compound `N#Cc1c(C(=O)N2CC[C@H](C(=O)Nc3cc(F)c(F)c(F)c3)C2)[nH]c2ccccc12` [Example 45, (S)-1-(3-cyano-1H-indole-2-carbonyl)-N-(3,4,5-trifluorophenyl)pyrrolidine-3-carboxamide] had an activity at 1 µM with HBV [2] of 60 to 70%. Besides, the “Size of induced capsids based” value on HBV core protein (Cp149) is listed as “induced capsids similar in size to NVR 3-778”.
As to `O=C(Nc1cc(F)c(F)c(F)c1)[C@H]1CCN(C(=O)c2ccc(Cl)[nH]2)C1` [Example 52, (S)-1-(5-chloro-1H-pyrrole-2-carbonyl)-N-(3,4,5-trifluorophenyl)pyrrolidine-3-carboxamide], the activity at 1 µM in the data set on HBV [2] is 70 to 80%. In addition, the “Size of induced capsids based” value at HBV core protein (Cp149) was “induced capsids similar in size to NVR 3-778”.
In the case of `C[C@H]1[C@@H](C(=O)Nc2ccc(F)c(C#N)c2)CCN1C(=O)c1ccc(Cl)[nH]1` [Example 65, (2S,3S)-1-(5-chloro-1H-pyrrole-2-carbonyl)-N-(3-cyano-4-fluorophenyl)-2-methylpyrrolidine-3-carboxamide], the CC50 at 6 days in data set [1] is over 25000 nM. Moreover, in the data set on HBV [2], the activity at 1 µM is under 45%. Besides, the EC50 in the data set with HBV [3] lay in the range of 50 to 300 nM.
For `C[C@H]1[C@@H](C(=O)Nc2cc(F)c(F)c(F)c2)CCN1C(=O)c1nc2cccnc2[nH]1` [Example 70, (2S,3S)-1-(3H-imidazo[4,5-b]pyridine-2-carbonyl)-2-methyl-N-(3,4,5-trifluorophenyl)pyrrolidine-3-carboxamide], the CC50 at 6 days in data set [1] was over 25000 nM. This compound also returned an activity at 1 µM with HBV [2] of 45 to 60%. Moreover, the EC50 in the data set on HBV [3] was in the range of 50 to 300 nM.
On to `Cc1ncnc(C)c1-c1ccc(C(=O)N2CC[C@H](C(=O)Nc3cc(F)c(F)c(Cl)c3)C2)[nH]1` [Example 100, (S)—N-(3-chloro-4,5-difluorophenyl)-1-(5-(4,6-dimethylpyrimidin-5-yl)-1H-pyrrole-2-carbonyl)pyrrolidine-3-carboxamide], for which the CC50 at 6 days in data set [1] was 10000 to 25000 nM. For the same compound, the activity at 1 µM in the data set with HBV [2] is under 45%. Also, the EC50 with HBV [3] is under 50 nM.
Regarding `Cc1n[nH]c(C)c1-c1ccc(C(=O)N2CC[C@H](C(=O)Nc3ccc(F)c(Cl)c3)[C@@H]2C)[nH]1` [Example 105, (2S,3S)—N-(3-chloro-4-fluorophenyl)-1-(5-(3,5-dimethyl-1H-pyrazol-4-yl)-1H-pyrrole-2-carbonyl)-2-methylpyrrolidine-3-carboxamide], the CC50 at 6 days in data set [1] is under 10000 nM. The activity at 1 µM in the data set on HBV [2] is under 45%. For the same compound, the EC50 in the data set on HBV [3] is under 50 nM.
In the case of `Cc1cnnc(C)c1-c1ccc(C(=O)N2CC[C@H](C(=O)Nc3ccc(F)c(C#N)c3)[C@@H]2C)[nH]1` [Example 116, (2S,3S)—N-(3-cyano-4-fluorophenyl)-1-(5-(3,5-dimethylpyridazin-4-yl)-1H-pyrrole-2-carbonyl)-2-methylpyrrolidine-3-carboxamide], the CC50 at 6 days in data set [1] is over 25000 nM. In the data set on HBV [2], this compound returned an activity at 1 µM of 45 to 60%. Further, in the data set with HBV [3], the EC50 lay within 50 to 300 nM.
In the case of `Cc1cc(NC(=O)[C@H]2CCN(C(=O)c3ccc(-c4c(C)cnnc4C)[nH]3)C2)ccc1F` [Example 117, (S)-1-(5-(3,5-dimethylpyridazin-4-yl)-1H-pyrrole-2-carbonyl)-N-(4-fluoro-3-methylphenyl)pyrrolidine-3carboxamide], in data set [1], the CC50 at 6 days is over 25000 nM. This compound displayed an activity at 1 µM in the data set with HBV [2] of 45 to 60%. In addition, the EC50 with HBV [3] was under 50 nM.
Consider `Cc1cc[nH]c(=O)c1-c1ccc(C(=O)N2CC[C@H](C(=O)Nc3ccc(F)c(Cl)c3)[C@@H]2C)[nH]1` [Example 119, (2S,3S)—N-(3-chloro-4-fluorophenyl)-2-methyl-1-(5-(4-methyl-2-oxo-1,2-dihydropyridin-3-yl)-1H-pyrrole-2-carbonyl)pyrrolidine-3-carboxamide], for which the CC50 at 6 days in data set [1] is over 25000 nM. The same compound showed an activity at 1 µM in the data set with HBV [2] of under 45%. Further, the EC50 with HBV [3] lay in the range of 50 to 300 nM.
Regarding `Cc1ncc(-c2ccc(C(=O)N3CC[C@H](C(=O)Nc4ccc(F)c(Cl)c4)[C@@H]3C)[nH]2)cn1` [Example 127, (2S,3S)—N-(3-chloro-4-fluorophenyl)-2-methyl-1-(5-(2-methylpyrimidin-5-yl)-1H-pyrrole-2-carbonyl)pyrrolidine-3-carboxamide], the activity at 1 µM with HBV [2] is under 45%. The EC50 in the data set on HBV [3] lay in the range of 50 to 300 nM.
`Cc1c(-c2ccc(C(=O)N3CC[C@H](C(=O)Nc4cc(F)c(F)c(F)c4)C3)[nH]2)cnc2[nH]ccc12` [Example 129, (S)-1-(5-(4-methyl-1H-pyrrolo[2,3-b]pyridin-5-yl)-1H-pyrrole-2-carbonyl)-N-(3,4,5-trifluorophenyl)pyrrolidine-3-carboxamide]: in the data set with HBV [2], the activity at 1 µM is under 45%. At HBV core protein (Cp149), the “Size of induced capsids based” value was “induced capsids similar in size to NVR 3-778”.
The like results for `Cc1ncnc(C)c1-c1ccc2cc(C(=O)N3CC[C@H](C(=O)Nc4cc(F)c(F)c(F)c4)C3)[nH]c2c1` [Example 132, (S)-1-(6-(4,6-dimethylpyrimidin-5-yl)-1H-indole-2-carbonyl)-N-(3,4,5-trifluorophenyl) pyrrolidine-3-carboxamide] were, in that order, 45 to 60% and “induced capsids similar in size to NVR 3-778”.
The compound `Cc1ncnc(C)c1-c1ccc2c(Cl)c(C(=O)N3CC[C@H](C(=O)Nc4cc(F)c(F)c(F)c4)C3)[nH]c2c1` [Example 133, (S)-1-(3-chloro-6-(4,6-dimethylpyrimidin-5-yl)-1H-indole-2-carbonyl)-N-(3,4,5-trifluorophenyl)pyrrolidine-3-carboxamide] yielded an activity at 1 µM in the data set with HBV [2] of 45 to 60%. Further, the “Size of induced capsids based” value on HBV core protein (Cp149) is “capsid retention times between BAY 41-4109 and NVR 3-778”.
`Cc1ncnc(C)c1-c1ccc2c(Cl)c(C(=O)N3CC[C@H](C(=O)Nc4ccc(F)c(C#N)c4)C3)[nH]c2c1` [Example 135, (S)-1-(3-chloro-6-(4,6-dimethylpyrimidin-5-yl)-1H-indole-2-carbonyl)-N-(3-cyano-4-fluorophenyl)pyrrolidine-3-carboxamide] came in with an activity at 1 µM in the data set with HBV [2] of under 45%. Also, the EC50 in the data set with HBV [3] lay within 50 to 300 nM. Moreover, at HBV core protein (Cp149), the “Size of induced capsids based” value is “capsid retention times between BAY 41-4109 and NVR 3-778”.
In turn, `Cc1nccnc1-c1ccc2c(Cl)c(C(=O)N3CC[C@H](C(=O)Nc4ccc(F)c(C#N)c4)C3)[nH]c2c1` [Example 139, (S)-1-(3-chloro-6-(3-methylpyrazin-2-yl)-1H-indole-2-carbonyl)-N-(3-cyano-4-fluorophenyl) pyrrolidine-3-carboxamide] showed an activity at 1 µM in the data set with HBV [2] of under 45%. For the same compound, at HBV core protein (Cp149), the “Size of induced capsids based” value was “capsid retention times between BAY 41-4109 and NVR 3-778”.
In the data set with HBV [2], `C[C@H]1[C@@H](C(=O)Nc2ccc(F)c(C#N)c2)CCN1C(=O)c1[nH]c2cc(-c3cn[nH]c3)ccc2c1Cl` [Example 141, (2S,3S)-1-(3-chloro-6-(1H-pyrazol-4-yl)-1H-indole-2-carbonyl)-N-(3-cyano-4-fluorophenyl)-2-methylpyrrolidine-3-carboxamide] came in with an activity at 1 µM of under 45%. The “Size of induced capsids based” value on HBV core protein (Cp149) was “capsid retention times between BAY 41-4109 and NVR 3-778”.
